Experimental data published in ChEMBL document CHEMBL1201862, “PubChem BioAssay data set” (2004).
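A five-concentration, 48-hour dose response in 96-well plates underlies each endpoint, interpolated linearly between surrounding concentrations. GI50 marks 50% less growth.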 Activity calls are given as the source filed them. No stated cut-off is given here; in the data, active = GI50 up to about 1.1 µM and inactive = higher.

Tests used:
Test in all cases: NCI-60 cell line screen, 48 h
M14 = tested on: M14
SF-539 = tested on: SF-539
MCF7 = tested on: MCF7
OVCAR-4 = tested on: OVCAR-4
SF-268 = tested on: SF-268
BT-549 = tested on: BT-549
SNB-75 = tested on: SNB-75
PC-3 = tested on: PC-3
TK-10 = tested on: TK-10
HOP-62 = tested on: HOP-62
786-0 = tested on: 786-0
IGROV-1 = tested on: IGROV-1
SK-MEL-28 = tested on: SK-MEL-28
RXF 393 = tested on: RXF 393
Malme-3M = tested on: Malme-3M
NCI-H460 = tested on: NCI-H460
MDA-N = tested on: MDA-N
ACHN = tested on: ACHN
UACC-257 = tested on: UACC-257
SW-620 = tested on: SW-620

Measured: GI50

C=C1CCC2C(C)(CO)C(O)CCC2(C)C1C/C=C1\C(=O)OCC1O (configuration not stated)
inactive: M14 17.8 µM | SF-539 20.6 µM | MCF7 15.7 µM | OVCAR-4 11.1 µM | SF-268 31.1 µM | BT-549 7.53 µM | SNB-75 15.4 µM | PC-3 20.1 µM | TK-10 52.8 µM | HOP-62 28.2 µM | 786-0 5.4 µM | IGROV-1 18.2 µM | SK-MEL-28 13.9 µM | RXF 393 18.7 µM | Malme-3M 15.6 µM | NCI-H460 21.2 µM | MDA-N 9.31 µM | ACHN 29 µM | UACC-257 20 µM | SW-620 9.71 µM

CNC(=O)C(C)C1C(=O)/C(=C(O)/C=C\C(C)=C\C(C)C2OC3(C)OC(C=CC34CO4)C2C)C(=O)N1C1CCC(O)C(C)O1 (configuration not stated)
inactive: M14 > 100 µM | SF-539 > 100 µM | MCF7 > 100 µM | SF-268 > 100 µM | BT-549 > 100 µM | SNB-75 > 100 µM | PC-3 > 100 µM | TK-10 > 100 µM | HOP-62 > 100 µM | 786-0 > 100 µM | IGROV-1 > 100 µM | SK-MEL-28 > 100 µM | RXF 393 > 100 µM | Malme-3M > 100 µM | NCI-H460 > 100 µM | MDA-N > 100 µM | ACHN > 100 µM | UACC-257 > 100 µM | SW-620 > 100 µM

O=[N+]([O-])C(/C=C(\Cl)[N+](=O)[O-])=C(Nc1ccccc1)Nc1ccccc1
inactive: M14 9.84 µM | SF-539 11.2 µM | OVCAR-4 6.76 µM | SF-268 14.3 µM | BT-549 7.24 µM | SNB-75 1.26 µM | PC-3 14.6 µM | TK-10 12.8 µM | 786-0 3.7 µM | IGROV-1 17.2 µM | SK-MEL-28 9.86 µM | RXF 393 4.65 µM | Malme-3M 8.67 µM | NCI-H460 16.4 µM | MDA-N 5.58 µM | ACHN 13.2 µM | UACC-257 13.9 µM | SW-620 2.79 µM
active: MCF7 0.843 µM

COc1ccc(C[n+]2cccc(O)c2)cc1
inactive: M14 > 100 µM | SF-539 > 100 µM | MCF7 > 100 µM | SF-268 > 100 µM | BT-549 > 100 µM | PC-3 > 100 µM | TK-10 > 100 µM | HOP-62 > 100 µM | 786-0 > 100 µM | IGROV-1 > 100 µM | SK-MEL-28 > 100 µM | RXF 393 > 100 µM | Malme-3M > 100 µM | NCI-H460 > 100 µM | MDA-N > 100 µM | ACHN > 100 µM | SW-620 > 100 µM

CN(/N=C(\C(=O)O)c1ccccc1)C1=NCCN1
inactive: SF-539 > 100 µM | MCF7 > 100 µM | OVCAR-4 > 100 µM | SF-268 > 100 µM | BT-549 47.2 µM | SNB-75 > 100 µM | PC-3 > 100 µM | TK-10 > 100 µM | HOP-62 > 100 µM | 786-0 > 100 µM | IGROV-1 54.2 µM | SK-MEL-28 > 100 µM | RXF 393 > 100 µM | Malme-3M > 100 µM | NCI-H460 > 100 µM | MDA-N > 100 µM | ACHN > 100 µM | UACC-257 > 100 µM | SW-620 > 100 µM

C=CCc1ccccc1C1CC2(C(=O)OC)OC1C(C(=O)OC)=C2C(=O)OC (configuration not stated)
inactive: M14 > 10 µM | SF-539 > 10 µM | MCF7 > 10 µM | OVCAR-4 > 10 µM | SF-268 > 10 µM | BT-549 > 10 µM | PC-3 > 10 µM | TK-10 > 10 µM | HOP-62 > 10 µM | 786-0 > 10 µM | IGROV-1 > 10 µM | SK-MEL-28 > 10 µM | RXF 393 > 10 µM | Malme-3M > 10 µM | NCI-H460 > 10 µM | MDA-N > 10 µM | ACHN > 10 µM | UACC-257 > 10 µM | SW-620 > 10 µM

COC(=O)c1c(O)ccc2c1c1c(n2CCc2ccccc2)C(=O)c2ccccc2C1=O
inactive: M14 15.4 µM | SF-539 16.7 µM | MCF7 9.02 µM | OVCAR-4 6.79 µM | SF-268 12.7 µM | BT-549 15.4 µM | PC-3 11.6 µM | TK-10 11.6 µM | HOP-62 21.4 µM | 786-0 16.7 µM | IGROV-1 11.9 µM | SK-MEL-28 16 µM | RXF 393 13.3 µM | Malme-3M 12.1 µM | NCI-H460 4.11 µM | MDA-N 10.2 µM | ACHN 11.9 µM | UACC-257 17.7 µM | SW-620 13.2 µM

CC(C)Oc1cccc(N2C(CCc3c[nH]c4ccc(Br)cc34)=NS(=O)(=O)c3cnccc32)c1
inactive: M14 32.5 µM | SF-539 75.7 µM | MCF7 21.5 µM | OVCAR-4 27.5 µM | SF-268 69.8 µM | BT-549 57.4 µM | SNB-75 48 µM | PC-3 24.7 µM | TK-10 53.8 µM | HOP-62 94 µM | 786-0 45 µM | SK-MEL-28 > 100 µM | RXF 393 59.8 µM | Malme-3M 80 µM | NCI-H460 35.1 µM | MDA-N 37.3 µM | ACHN 28.7 µM | UACC-257 50.8 µM | SW-620 72.3 µM

Cc1cc(C)nc(NS(=O)(=O)c2ccc(NC(=O)c3cc([N+](=O)[O-])cc([N+](=O)[O-])c3)cc2)n1
inactive: M14 45.8 µM | SF-539 37 µM | MCF7 55 µM | OVCAR-4 22.9 µM | SF-268 44.4 µM | BT-549 > 100 µM | SNB-75 15.6 µM | PC-3 58.7 µM | TK-10 > 100 µM | HOP-62 > 100 µM | 786-0 > 100 µM | IGROV-1 > 100 µM | SK-MEL-28 99.8 µM | RXF 393 > 100 µM | Malme-3M 42.1 µM | NCI-H460 86.7 µM | MDA-N > 100 µM | UACC-257 16.4 µM | SW-620 > 100 µM

CC(=O)c1c(C)n(C)c2c1nnc1ccccc12
inactive: M14 67.8 µM | SF-539 34.8 µM | MCF7 26.5 µM | OVCAR-4 > 100 µM | SF-268 34.1 µM | BT-549 71.3 µM | PC-3 59.3 µM | TK-10 29.4 µM | HOP-62 55.2 µM | 786-0 36 µM | SK-MEL-28 > 100 µM | RXF 393 40.2 µM | Malme-3M 39.5 µM | NCI-H460 25.7 µM | MDA-N 67.9 µM | ACHN 34.4 µM | UACC-257 > 100 µM | SW-620 44.5 µM

CCCC(=O)OC(OC(=O)CCC)c1ccc([N+](=O)[O-])o1
inactive: M14 19.8 µM | SF-539 35.7 µM | MCF7 16.9 µM | SF-268 65.6 µM | BT-549 47.2 µM | SNB-75 > 100 µM | PC-3 61.7 µM | TK-10 19.4 µM | HOP-62 62.8 µM | 786-0 18.3 µM | IGROV-1 14.8 µM | SK-MEL-28 20.4 µM | RXF 393 17.2 µM | Malme-3M 19.2 µM | NCI-H460 > 100 µM | MDA-N 20.1 µM | ACHN 20.5 µM | UACC-257 21.4 µM | SW-620 20 µM

O=C(NC(Nc1ccc(F)c(Cl)c1)(C(F)(F)F)C(F)(F)F)OCc1ccccc1
inactive: M14 37 µM | SF-539 17.6 µM | MCF7 19.4 µM | SF-268 62.7 µM | BT-549 14.7 µM | SNB-75 36.9 µM | PC-3 17.4 µM | TK-10 63.1 µM | HOP-62 30.3 µM | 786-0 18.3 µM | IGROV-1 39 µM | SK-MEL-28 > 100 µM | RXF 393 43.3 µM | Malme-3M 43.5 µM | NCI-H460 85.1 µM | MDA-N 19.7 µM | ACHN 17.7 µM | UACC-257 > 100 µM | SW-620 61.7 µM

COC(=O)C1Cc2c(OC)ccc(OC)c2CC(C(=O)OC)C1=O (configuration not stated)
inactive: M14 > 100 µM | SF-539 > 100 µM | MCF7 > 100 µM | OVCAR-4 > 100 µM | SF-268 > 100 µM | BT-549 > 100 µM | SNB-75 > 100 µM | PC-3 > 100 µM | HOP-62 > 100 µM | 786-0 > 100 µM | IGROV-1 > 100 µM | SK-MEL-28 > 100 µM | RXF 393 > 100 µM | Malme-3M > 100 µM | NCI-H460 > 100 µM | MDA-N > 100 µM | ACHN 63.5 µM | UACC-257 > 100 µM | SW-620 > 100 µM

COc1ccc(C(CC(=O)C(C)(C)CN2CCCCC2)SCCS(=O)(=O)O)cc1 (configuration not stated)
inactive: M14 18.7 µM | SF-539 19.9 µM | MCF7 28.7 µM | OVCAR-4 34 µM | BT-549 45.7 µM | SNB-75 22.3 µM | PC-3 53.7 µM | TK-10 45.7 µM | HOP-62 77.8 µM | 786-0 18.3 µM | IGROV-1 53.2 µM | RXF 393 40.4 µM | Malme-3M 20.9 µM | NCI-H460 22.6 µM | MDA-N 29.6 µM | ACHN 33.2 µM | UACC-257 34.4 µM | SW-620 32.6 µM

Cc1ccc(/C=N/Nc2cc(C)c3ccccc3n2)s1
inactive: M14 13.7 µM | SF-539 21.3 µM | MCF7 12 µM | OVCAR-4 20 µM | SF-268 26.1 µM | BT-549 21.3 µM | SNB-75 31.6 µM | PC-3 14 µM | TK-10 30.8 µM | HOP-62 15.7 µM | 786-0 18.7 µM | IGROV-1 10.2 µM | SK-MEL-28 20.3 µM | RXF 393 23.3 µM | Malme-3M 5.75 µM | MDA-N 13.8 µM | ACHN 20.1 µM | UACC-257 7.53 µM | SW-620 21.7 µM
